Laboratory results taken from patent US20060069132A1, “Azolecarboxamide herbicides” (priority 2004, published 2006).

Columns and labels:
barnyardgrass [1] = assay: Test B pre-/postemergence herbicide test; type: in vivo, Echinochloa crus-galli; settings: for Barnyardgrass plant response rating (0 to 100 scale) / Plant response rating, Barnyardgrass: preemergence; for Barnyardgrass plant response rating: postemergence
Summary of the method: (§1)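 Flooded paddy rice and barnyardgrass were treated at the 2-leaf stage; upland plantings received compound either on sown seed or on 1- to 4-leaf seedlings. All were kept 13–15 days in a greenhouse and scored visually, 0–100, relative to untreated plants.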

Surinam grass = assay: Test B pre-/postemergence herbicide test; type: in vivo, Urochloa decumbens; settings: for Surinam Grass plant response rating (0 to 100 scale) / Plant response rating, Surinam Grass: preemergence; for Surinam Grass plant response rating: postemergence
Summary of the method: (§2)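 Seeds were planted and treated preemergence with compounds formulated in a non-phytotoxic solvent mixture containing surfactant, while plants at the 1- to 4-leaf stage (2 to 18 cm) received postemergence sprays. Flooded paddy plants were grown to the 2-leaf stage. After 13 to 15 days in a greenhouse, injury was visually rated 0–100 against untreated controls.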

cocklebur = assay: Test B pre-/postemergence herbicide test; type: in vivo, Xanthium strumarium; settings: for Cocklebur plant response rating (0 to 100 scale) / Plant response rating, Cocklebur: preemergence; for Cocklebur plant response rating: postemergence
Summary of the method: as §1

corn = assay: Test B pre-/postemergence herbicide test; type: in vivo, Zea mays; settings: for Corn plant response rating (0 to 100 scale) / Plant response rating, Corn: preemergence; for Corn plant response rating: postemergence
Summary of the method: as §2

large crabgrass = assay: Test B pre-/postemergence herbicide test; type: in vivo, Digitaria sanguinalis; settings: for Crabgrass, Large plant response rating (0 to 100 scale) / Plant response rating, Crabgrass, Large: preemergence; for Crabgrass, Large plant response rating: postemergence
Summary of the method: as §2

lambsquarters = assay: Test B pre-/postemergence herbicide test; type: in vivo, Chenopodium album; settings: for Lambsquarters plant response rating (0 to 100 scale) / Plant response rating, Lambsquarters: preemergence; for Lambsquarters plant response rating: postemergence
Summary of the method: as §2

morningglory = assay: Test B pre-/postemergence herbicide test; type: in vivo, Ipomoea coccinea; settings: for Morningglory plant response rating (0 to 100 scale) / Plant response rating, Morningglory: preemergence; for Morningglory plant response rating: postemergence
Summary of the method: as §1

velvetleaf = assay: Test B pre-/postemergence herbicide test; type: in vivo, Abutilon theophrasti; settings: for Velvetleaf plant response rating (0 to 100 scale) / Plant response rating, Velvetleaf: preemergence; for Velvetleaf plant response rating: postemergence
Summary of the method: as §2

blackgrass = assay: Test B postemergence herbicide test; type: in vivo, Alopecurus myosuroides; settings: postemergence
Summary of the method: (§3)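 After treating 2-leaf paddy plants or 2–18 cm postemergence plants (1 to 4 leaves) with formulated chemical, researchers kept them in a greenhouse for 13–15 days. Effects were judged visually versus controls: 0 indicates none, 100 total control.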

wheat = assay: Test B postemergence herbicide test; type: in vivo, Triticum aestivum; set-up: key to Wheat plant response rating: 0 = no effect, 100 = complete control; settings: postemergence
Summary of the method: (§4)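 Visual ratings, 0 (no effect) to 100 (complete control), made versus controls after 13–15 d greenhouse. Paddy plants treated at 2-leaf stage; postemergence plants at 1- to 4-leaf stage, 2–18 cm tall.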

wild oat = assay: Test B postemergence herbicide test; type: in vivo, Avena fatua; settings: postemergence
Summary of the method: as §4

rice = assay: Test B flooded paddy test; type: in vivo, Oryza sativa; settings: 1000 g ai/ha, scale 0 to 100 (0 no effect, 100 complete control)
Summary of the method: as §4

[2] = test system: small flower umbrella sedge; assay: Test B flooded paddy test; type: in vivo, Cyperus difformis; settings: 1000 g ai/ha, scale 0 to 100 (0 no effect, 100 complete control)
Summary of the method: as §3

ducksalad = assay: Test B flooded paddy test; type: in vivo, Heteranthera limosa; settings: 1000 g ai/ha, scale 0 to 100 (0 no effect, 100 complete control)
Summary of the method: as §3

barnyardgrass [3] = assay: Test B flooded paddy test; type: in vivo, Echinochloa crus-galli; settings: 1000 g ai/ha, scale 0 to 100 (0 no effect, 100 complete control)
Summary of the method: as §3

[4] = 125 g ai/ha, 0 = no effect, 100 = complete control
[5] = 500 g ai/ha, visual rating 0-100, 0 no effect, 100 complete control
[6] = 125 g ai/ha, visual rating, scale 0 (no effect) to 100 (complete control)
[7] = 500 g ai/ha, visual rating, scale 0 (no effect) to 100 (complete control)
[8] = 500 g ai/ha, visual rating, 0 = no effect, 100 = complete control
[9] = 500 g ai/ha, scale 0 to 100, 0 is no effect, 100 is complete control

CCc1nc(C(C)(C)C)sc1C(=O)Nc1cccc(C(=O)N(CC)CC)c1 [Compound 205]
10: Barnyardgrass plant response rating (barnyardgrass [1]; [6]) | Cocklebur plant response rating (0 to 100 scale) (cocklebur; [4]) | Corn plant response rating (0 to 100 scale) (corn; [4]) | Crabgrass, Large plant response rating (large crabgrass; [6]) | Wheat plant response rating (wheat; [6])
60: Crabgrass, Large plant response rating (0 to 100 scale) (large crabgrass; [4]) | Lambsquarters plant response rating (lambsquarters; [6]) | Rice plant response rating (rice; visual rating, 13 to 15 days) | Sedge, Umbrella plant response rating ([2]; visual rating, 13 to 15 days)
100: Plant response rating, Lambsquarters (lambsquarters; [5])
80: Plant response rating, Surinam Grass (Surinam grass; [5]) | Cocklebur plant response rating (cocklebur; [7]) | Lambsquarters plant response rating (0 to 100 scale) (lambsquarters; [4]) | Plant response rating, Velvetleaf (velvetleaf; [5])
90: Plant response rating, Barnyardgrass (barnyardgrass [1]; [5]) | Plant response rating, Crabgrass, Large (large crabgrass; [5])
0: Morningglory plant response rating (0 to 100 scale) (morningglory; [4]) | Blackgrass plant response rating (blackgrass; [6])
40: Cocklebur plant response rating (cocklebur; [6]) | Plant response rating, Corn (corn; [5]) | Velvetleaf plant response rating (velvetleaf; [7])
70: Lambsquarters plant response rating (lambsquarters; [7]) | Barnyardgrass plant response rating (barnyardgrass [3]; visual rating, 13 to 15 days)
30: Plant response rating, Morningglory (morningglory; [5]) | Morningglory plant response rating (morningglory; [6]) | Velvetleaf plant response rating (0 to 100 scale) (velvetleaf; [4]) | Oat, Wild plant response rating (wild oat; [7])
20: Barnyardgrass plant response rating (barnyardgrass [1]; [7]) | Surinam Grass plant response rating (0 to 100 scale) (Surinam grass; [4]) | Surinam Grass plant response rating (Surinam grass; [6]) | Surinam Grass plant response rating (Surinam grass; [7]) | Plant response rating, Cocklebur (cocklebur; [5]) | Corn plant response rating (corn; [6]) | Corn plant response rating (corn; [7]) | Crabgrass, Large plant response rating (large crabgrass; [7]) | Velvetleaf plant response rating (velvetleaf; [6]) | Blackgrass plant response rating (blackgrass; [7]) | Wheat plant response rating (wheat; [7]) | Oat, Wild plant response rating (wild oat; [6])
50: Barnyardgrass plant response rating (0 to 100 scale) (barnyardgrass [1]; [4]) | Morningglory plant response rating (morningglory; [7]) | Ducksalad plant response rating (ducksalad; visual rating, 13 to 15 days)

CCn1nc(C(C)(C)C)cc1C(=O)Nc1nc(C(=O)N2CC=CC2)ccc1F [Compound 281]
10: Surinam Grass plant response rating (0 to 100 scale) (Surinam grass; [4]) | Surinam Grass plant response rating (Surinam grass; [6]) | Corn plant response rating (corn; [9]) | Crabgrass, Large plant response rating (0 to 100 scale) (large crabgrass; [4]) | Crabgrass, Large plant response rating (large crabgrass; [6]) | Crabgrass, Large plant response rating (large crabgrass; [9]) | Morningglory plant response rating (morningglory; [9]) | Velvetleaf plant response rating (0 to 100 scale) (velvetleaf; [4]) | Oat, Wild plant response rating (wild oat; [6])
0: Barnyardgrass plant response rating (barnyardgrass [1]; [6]) | Barnyardgrass plant response rating (barnyardgrass [1]; [9]) | Cocklebur plant response rating (0 to 100 scale) (cocklebur; [4]) | Plant response rating, Cocklebur (cocklebur; [8]) | Corn plant response rating (0 to 100 scale) (corn; [4]) | Plant response rating, Corn (corn; [8]) | Corn plant response rating (corn; [6]) | Morningglory plant response rating (0 to 100 scale) (morningglory; [4]) | Morningglory plant response rating (morningglory; [6]) | Velvetleaf plant response rating (velvetleaf; [6])
20: Barnyardgrass plant response rating (0 to 100 scale) (barnyardgrass [1]; [4]) | Surinam Grass plant response rating (Surinam grass; [9]) | Cocklebur plant response rating (cocklebur; [6]) | Cocklebur plant response rating (cocklebur; [9]) | Lambsquarters plant response rating (lambsquarters; [6]) | Plant response rating, Morningglory (morningglory; [8]) | Velvetleaf plant response rating (velvetleaf; [9]) | Blackgrass plant response rating (blackgrass; [6]) | Oat, Wild plant response rating (wild oat; [9])
40: Plant response rating, Surinam Grass (Surinam grass; [8])
70: Plant response rating, Crabgrass, Large (large crabgrass; [8]) | Plant response rating, Velvetleaf (velvetleaf; [8]) | Rice plant response rating (rice) | Sedge, Umbrella plant response rating [2] | Barnyardgrass plant response rating (barnyardgrass [3])
100: Plant response rating, Lambsquarters (lambsquarters; [8])
90: Plant response rating, Barnyardgrass (barnyardgrass [1]; [8]) | Lambsquarters plant response rating (0 to 100 scale) (lambsquarters; [4])
80: Ducksalad plant response rating (ducksalad)
30: Lambsquarters plant response rating (lambsquarters; [9]) | Blackgrass plant response rating (blackgrass; [9]) | Wheat plant response rating (wheat; [6]) | Wheat plant response rating (wheat; [9])

CCNC(=O)c1ccc(F)c(NC(=O)c2cc(C(C)(C)C)nn2CC)n1 [Compound 278]
30: Barnyardgrass plant response rating (0 to 100 scale) (barnyardgrass [1]; [4]) | Cocklebur plant response rating (cocklebur; [9]) | Lambsquarters plant response rating (lambsquarters; [9]) | Blackgrass plant response rating (blackgrass; [9]) | Wheat plant response rating (wheat; [6]) | Wheat plant response rating (wheat; [9]) | Oat, Wild plant response rating (wild oat; [9])
80: Plant response rating, Barnyardgrass (barnyardgrass [1]; [8]) | Plant response rating, Crabgrass, Large (large crabgrass; [8]) | Ducksalad plant response rating (ducksalad)
60: Plant response rating, Surinam Grass (Surinam grass; [8]) | Plant response rating, Velvetleaf (velvetleaf; [8]) | Rice plant response rating (rice) | Barnyardgrass plant response rating (barnyardgrass [3])
10: Barnyardgrass plant response rating (barnyardgrass [1]; [9]) | Surinam Grass plant response rating (Surinam grass; [6]) | Surinam Grass plant response rating (Surinam grass; [9]) | Cocklebur plant response rating (cocklebur; [6]) | Corn plant response rating (corn; [6]) | Crabgrass, Large plant response rating (large crabgrass; [9]) | Plant response rating, Morningglory (morningglory; [8]) | Velvetleaf plant response rating (velvetleaf; [6]) | Velvetleaf plant response rating (velvetleaf; [9])
0: Barnyardgrass plant response rating (barnyardgrass [1]; [6]) | Cocklebur plant response rating (0 to 100 scale) (cocklebur; [4]) | Plant response rating, Cocklebur (cocklebur; [8]) | Corn plant response rating (0 to 100 scale) (corn; [4]) | Crabgrass, Large plant response rating (large crabgrass; [6]) | Morningglory plant response rating (0 to 100 scale) (morningglory; [4]) | Morningglory plant response rating (morningglory; [6]) | Velvetleaf plant response rating (0 to 100 scale) (velvetleaf; [4])
70: Sedge, Umbrella plant response rating [2]
20: Surinam Grass plant response rating (0 to 100 scale) (Surinam grass; [4]) | Plant response rating, Corn (corn; [8]) | Corn plant response rating (corn; [9]) | Crabgrass, Large plant response rating (0 to 100 scale) (large crabgrass; [4]) | Lambsquarters plant response rating (lambsquarters; [6]) | Morningglory plant response rating (morningglory; [9]) | Blackgrass plant response rating (blackgrass; [6]) | Oat, Wild plant response rating (wild oat; [6])
100: Lambsquarters plant response rating (0 to 100 scale) (lambsquarters; [4]) | Plant response rating, Lambsquarters (lambsquarters; [8])
